Data reported in the supplement of paper PMC10627819.

How the values were obtained:
B. subtilis 168 [1] = experiment: fitness (endpoint OD595 vs no drug) (fraction); higher = more growth
In short: (§1)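 Plates with 384 wells were inoculated at OD595 0.01 using 30 µl of TSB, LB Lennox or CY, or 55 µl for S. pneumoniae. Incubation was at 37 °C, with OD595 measured every 30 min for 14 h. Fitness is the stationary-phase transition optical density over the robust mean of no-drug control wells, after first-reading background subtraction; it is capped at 1.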

S. aureus DSM 20231 [2] = experiment: as above
In short: as §1

S. pneumoniae D39V [3] = experiment: as above
In short: as §1

B. subtilis 168 [4] = experiment: Bliss interaction score (quartile over a dose matrix) (fitness difference); higher = more antagonism (negative = synergy)
In short: (§2)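 Growth was read as OD595 when cultures entered stationary phase, and each value was divided by the plate's robust no-drug mean and capped at 1. This normalised ratio is the fitness value, and fitness for each single drug came from the combination data. The Bliss score subtracts the expected fitness, taken as the product, from the observed fitness and is given as quartiles across technical, biological and donor/recipient replicates.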

S. aureus DSM 20231 [5] = experiment: as above
In short: as §2

S. aureus Newman = experiment: as above
In short: as §2

S. pneumoniae D39V [6] = experiment: as above
In short: as §2
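Wherever Bliss interaction score (quartile over a dose matrix) is given: first quartile when negative (synergy) and third quartile when positive (antagonism).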

CCC[C@@H]1C[C@@H](C(=O)N[C@@H]([C@H]2O[C@H](SC)[C@H](O)[C@@H](O)[C@H]2O)[C@@H](C)O)N(C)C1 [Lincomycin] + COc1ccc(C[C@H](N)C(=O)N[C@H]2[C@@H](O)[C@H](n3cnc4c(N(C)C)ncnc43)O[C@@H]2CO)cc1 [Puromycin]
fitness
Conditions | first compound 0.1 µg/mL | first compound 0.2 µg/mL | first compound 0.215 µg/mL | first compound 0.4 µg/mL | first compound 0.43 µg/mL | first compound 0.86 µg/mL
B. subtilis 168 [1], partner 0.39 µg/mL | 0.867 | 0.869 | – | 0.854 | – | –
B. subtilis 168 [1], partner 0.78 µg/mL | 0.889 | 0.883 | – | 0.91 | – | –
B. subtilis 168 [1], partner 1.56 µg/mL | 0.873 | 0.866 | – | 0.843 | – | –
S. aureus DSM 20231 [2], partner 0.39 µg/mL | 0.877 | 0.806 | – | 0.304 | – | –
S. aureus DSM 20231 [2], partner 0.78 µg/mL | 0.935 | 0.776 | – | 0.303 | – | –
S. aureus DSM 20231 [2], partner 1.56 µg/mL | 0.906 | 0.759 | – | 0.253 | – | –
S. pneumoniae D39V [3], partner 1 µg/mL | – | – | 0.838 | – | 0.756 | 0.436
S. pneumoniae D39V [3], partner 2 µg/mL | – | – | 0.792 | – | 0.709 | 0.3
S. pneumoniae D39V [3], partner 4 µg/mL | – | – | 0.743 | – | 0.536 | 0.251

fitness, one replicate
Conditions | first compound 0.1 µg/mL | first compound 0.2 µg/mL | first compound 0.4 µg/mL | first compound 0.8 µg/mL
S. aureus DSM 20231 [2], partner 3.12 µg/mL | 0.822 | 0.489 | 0.207 | –
S. aureus DSM 20231 [2], partner 6.24 µg/mL | 0.282 | 0.217 | 0.093 | –
S. pneumoniae D39V [3], partner 1 µg/mL | – | 0.64 | 0.382 | 0.0776
S. pneumoniae D39V [3], partner 2 µg/mL | – | 0.621 | 0.325 | 0.127
S. pneumoniae D39V [3], partner 4 µg/mL | – | 0.275 | 0.083 | 0.0925

Conditions | Bliss interaction score
B. subtilis 168 [4] | -0.0436
S. aureus DSM 20231 [5] | -0.0648
S. aureus Newman | 0.0533
S. pneumoniae D39V [6] | -0.157

CCC[C@@H]1C[C@@H](C(=O)N[C@@H]([C@H]2O[C@H](SC)[C@H](O)[C@@H](O)[C@H]2O)[C@@H](C)O)N(C)C1 [Lincomycin] + C[n+]1ccc(-c2cc[n+](C)cc2)cc1 [Paraquat]
Conditions | fitness
B. subtilis 168 [1], first compound 0.1 µg/mL, partner 1.25 µg/mL | 0.92
B. subtilis 168 [1], first compound 0.1 µg/mL, partner 2.5 µg/mL | 0.92
B. subtilis 168 [1], first compound 0.1 µg/mL, partner 5 µg/mL | 0.968
B. subtilis 168 [1], first compound 0.2 µg/mL, partner 1.25 µg/mL | 0.923
B. subtilis 168 [1], first compound 0.2 µg/mL, partner 2.5 µg/mL | 0.855
B. subtilis 168 [1], first compound 0.2 µg/mL, partner 5 µg/mL | 0.833
B. subtilis 168 [1], first compound 0.4 µg/mL, partner 1.25 µg/mL | 0.878
B. subtilis 168 [1], first compound 0.4 µg/mL, partner 2.5 µg/mL | 0.845
B. subtilis 168 [1], first compound 0.4 µg/mL, partner 5 µg/mL | 0.814
S. aureus DSM 20231 [2], first compound 0.1 µg/mL, partner 1.25 µg/mL | 0.801
S. aureus DSM 20231 [2], first compound 0.1 µg/mL, partner 2.5 µg/mL | 0.802
S. aureus DSM 20231 [2], first compound 0.1 µg/mL, partner 5 µg/mL | 0.838
S. aureus DSM 20231 [2], first compound 0.2 µg/mL, partner 1.25 µg/mL | 0.739
S. aureus DSM 20231 [2], first compound 0.2 µg/mL, partner 2.5 µg/mL | 0.719
S. aureus DSM 20231 [2], first compound 0.2 µg/mL, partner 5 µg/mL | 0.692
S. aureus DSM 20231 [2], first compound 0.4 µg/mL, partner 5 µg/mL | 0.28
S. pneumoniae D39V [3], first compound 0.215 µg/mL, partner 1.5 µg/mL | 0.885
S. pneumoniae D39V [3], first compound 0.215 µg/mL, partner 3 µg/mL | 0.863
S. pneumoniae D39V [3], first compound 0.215 µg/mL, partner 6 µg/mL | 0.814
S. pneumoniae D39V [3], first compound 0.43 µg/mL, partner 1.5 µg/mL | 0.774
S. pneumoniae D39V [3], first compound 0.43 µg/mL, partner 3 µg/mL | 0.733
S. pneumoniae D39V [3], first compound 0.43 µg/mL, partner 6 µg/mL | 0.711
S. pneumoniae D39V [3], first compound 0.86 µg/mL, partner 1.5 µg/mL | 0.56
S. pneumoniae D39V [3], first compound 0.86 µg/mL, partner 3 µg/mL | 0.407
S. pneumoniae D39V [3], first compound 0.86 µg/mL, partner 6 µg/mL | 0.453

fitness, S. pneumoniae D39V [3], one replicate
Conditions | first compound 0.2 µg/mL | first compound 0.4 µg/mL | first compound 0.8 µg/mL
partner 1.5 µg/mL | 0.83 | 0.758 | 0.675
partner 3 µg/mL | 0.866 | 0.751 | 0.729
partner 6 µg/mL | 0.889 | 0.802 | 0.776

Conditions | Bliss interaction score
B. subtilis 168 [4] | 0.0402
S. aureus DSM 20231 [5] | -0.0564
S. aureus Newman | -0.191
S. pneumoniae D39V [6] | 0.0842
